Data on 25 compounds can be found in patent US20240091200A1 (Lilac Therapeutics, Inc., priority 2019, published 2024).

Values joined by “and” are separate entries in the source; they are usually repeats but may differ in a detail not shown here. Equal entries are not always repeated. Where two headings read alike, the source gives them in different places. Some results are limits rather than exact numbers.

The target of one data set is Glycolate oxidase (GO) (Homo sapiens (Human), UniProt Q9UJM8). As to the kind of experiment: GO biochemical assay (Amplex Red, 384-well). How it is done:
Amplex® Red Hydrogen Peroxide/Peroxidase Assay Kit (Catalog no. A22188) was purchased from Thermo Fisher (Waltham, MA).
The reaction was mixed and incubated at room temperature for 20 min followed by reading the plates by EnVision plate reader (Perkin Elmer, San Jose, CA) with excitation at 570 nm and emission 585 nm. […] The % inhibition as calculated as 100%×(Well-Negative)/(Positive-Negative)

The nature of data set [1]: Plasma pharmacokinetics after an oral dose of Example 2 in SD rats. To be noted: Example 2 in plasma, PO Example 2 5 mg/kg. Type of data set: in vivo, Sprague Dawley rats. Here is the method:
An oral dose of Example 2 was formulated in a sterile solution of 50% water, 37.5% PEG 300, and 12.5% DMSO at 1.0 mg/mL. The dosing group consisted of three fasted male Sprague Dawley rats. At dosing, the animals weighed between 0.26 and 0.27 kg. For the oral dosing group, the formulated dose was administered via oral gavage at 5.0 mL/kg for a dose of 5.0 mg/kg. Non-compartmental pharmacokinetic analysis was performed on the plasma concentration-time data.

The mark [2] stands for this setting: male, Sprague Dawley, rat, plasma, po, 5 mg/kg, individual rats.
[3] abbreviates: male, Sprague Dawley, rat, plasma, po, 5 mg/kg, mean n=3.

Chain of Glycolate oxidase (GO) (Q9UJM8 whole entry): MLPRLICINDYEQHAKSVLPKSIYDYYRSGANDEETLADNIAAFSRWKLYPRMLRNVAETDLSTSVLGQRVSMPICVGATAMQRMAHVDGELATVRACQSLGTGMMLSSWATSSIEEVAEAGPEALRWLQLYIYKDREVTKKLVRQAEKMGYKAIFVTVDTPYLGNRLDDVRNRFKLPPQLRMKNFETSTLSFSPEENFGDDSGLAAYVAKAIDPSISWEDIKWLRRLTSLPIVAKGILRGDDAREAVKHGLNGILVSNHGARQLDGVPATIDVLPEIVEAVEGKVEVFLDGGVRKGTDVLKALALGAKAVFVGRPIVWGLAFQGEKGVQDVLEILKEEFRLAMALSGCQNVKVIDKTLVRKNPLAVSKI

As a reminder, the IC50 is the concentration needed to halve the response being measured. Usually Cmax stands for the highest concentration seen after dosing. For orientation: Tmax means the time from dosing to the highest level. A word on the AUC(0-inf): it is the area under the concentration-time curve extrapolated to infinity. A lower AUC(0-inf) goes with low exposure. On to `CCOC(=O)c1[nH]nnc1-c1ccc(-c2ccc(C(N)=O)cc2)cc1` [Example 2, ethyl 4-(4carbamoyl-[1,1biphenyl]-4-yl)-1H-1,2,3-triazole-5-carboxylate], for which, on Glycolate oxidase (GO), the IC50 stood at 1000 nM. Further, in data set [1] (individual rats), the AUC0-24 h is 1.55 µM·h and 1.85 µM·h. Further, the AUCinf is 1.57 µM·h and 1.9 µM·h in data set [1] (individual rats); 1.6 µM·h in data set [1] (mean n=3). The Cmax in data set [1] (individual rats) is 2530 nM and 2110 nM; in data set [1] (setting [2]), 2540 nM; in data set [1] (setting [3]) it was 2390 ± 246 nM. Also, the Tmax in data set [1] (individual rats) stood at 30 min; in data set [1] (male, Sprague Dawley, rat, plasma, po, 5 mg/kg, individual rats, read-out: Tmax), 15 min; in data set [1] (male, Sprague Dawley, rat, plasma, po, 5 mg/kg, mean n=3, read-out: Tmax), 19.8 min. The AUC(0-inf) in data set [1] (setting [2]) is 1.34 µM·h; in data set [1] (setting [3]), 1.6 ± 0.28 µM·h. Besides, the AUC(0-t) was determined as 1.27 µM·h in data set [1] (male, Sprague Dawley, rat, plasma, po, 5 mg/kg, individual rats, read-out: AUC0-24 h) and 1.56 µM·h in data set [1] (male, Sprague Dawley, rat, plasma, po, 5 mg/kg, mean n=3, read-out: AUC0-24 h).
The compound `CC1(C)c2cc(-c3ccc(-c4nn[nH]c4C(=O)O)cc3)ccc2C(=O)N1CC(F)(F)F` [Example 153, 4-(4-(3,3-dimethyl-1-oxo-2-(2,2,2-trifluoroethyl)isoindolin-5-yl)phenyl)-1H-1,2,3-triazole-5-carboxylic acid] registered an IC50 against Glycolate oxidase (GO) of 119 nM.
Still for that read-out and setting: the figure for `O=C(O)c1[nH]nnc1-c1ccc2c(c1)[nH]c1ccccc12` [Example 88, 4-(9H-carbazol-2-yl)-1H-1,2,3-triazole-5-carboxylic acid] is 77.6 nM; for `Cc1ccccc1-c1nn[nH]c1C(=O)O` [Example 3, 4-(o-tolyl)-1H-1,2,3-triazole-5-carboxylic acid] it is at least 10000 nM; for `O=C(O)c1[nH]nnc1-c1ccc(-c2ccc(-c3cnn[nH]3)cc2)cc1` [Example 127] it is 4.14 nM.
Same read-out and setting: the figure for `CN(C)C(=O)c1cccc(-c2ccc(-c3nn[nH]c3C(=O)O)cc2)c1` [Example 143] is 1000 nM.
Same read-out and setting: the figure for `O=C(O)c1[nH]nnc1-c1ccc(-c2ccc(OC(F)(F)F)cc2)cc1` [Example 55] is 563 nM; for `O=C(O)c1[nH]cnc1-c1cc(Cl)cc(Cl)c1` [Example 185, 4-(3,5-dichlorophenyl)-1H-imidazole-5-carboxylic acid] it is over 10000 nM; for `O=C(O)c1[nH]nnc1-c1cccc(F)c1` [Example 8, 4-(3-fluorophenyl)-1H-1,2,3-triazole-5-carboxylic acid] it is 1310 nM.
`O=C(O)c1[nH]nnc1-c1ccc(Cl)c(Cl)c1` [Example 19, 4-(3,4-dichlorophenyl)-1H-1,2,3-triazole-5-carboxylic acid] came in with an IC50 against Glycolate oxidase (GO) of 196 nM.
Take `Cc1[nH]nnc1-c1ccc(-c2ccc(-c3nn[nH]c3C(=O)O)cc2)cc1` [Example 131]: half-maximal inhibition against Glycolate oxidase (GO) (IC50) was put at 4.67 nM.
In turn, `O=C(O)c1c[nH]nc1-c1ccc(F)c(Cl)c1` [Example 182, 3-(3-chloro-4-fluorophenyl)-1H-pyrazole-4-carboxylic acid] registered an IC50 on Glycolate oxidase (GO) of over 10000 nM.
In turn, `O=C(O)c1[nH]ncc1-c1ccc2c(c1)C(F)(F)c1cc(-c3c[nH]nn3)ccc1-2` [Example 170, 4-(9,9-difluoro-7-(1H-1,2,3-triazol-4-yl)-9H-fluoren-2-yl)-1H-pyrazole-5-carboxylic acid] displayed an IC50 on Glycolate oxidase (GO) of 16.5 nM.
On the same count and under the same terms, to `O=C(O)c1[nH]nnc1-c1ccccn1` [Example 139, 4-(pyridin-2-yl)-1H-1,2,3-triazole-5-carboxylic acid] belongs at least 10000 nM; to `Cn1nnc(-c2ccc(F)c(Cl)c2)c1C(=O)O` [Example 150, 4-(3-chloro-4-fluorophenyl)-1-methyl-11H-1,2,3-triazole-5-carboxylic acid], at least 10000 nM.
The same measure, in the same setting: to `O=C(O)c1[nH]nnc1-c1ccc(-c2ccc(-c3c[nH]cn3)cc2)cc1` [Example 129] belongs 24 nM; to `O=C(O)c1[nH]cnc1-c1ccc(F)c(Cl)c1` [Example 184, 4-(3-chloro-4-fluorophenyl)-1H-imidazole-5-carboxylic acid], over 10000 nM; to `O=C(O)c1[nH]nnc1-c1ccc(-c2ccc(-c3ccncc3)cc2)cc1` [Example 103], 93.2 nM.
Still for that read-out and setting: to `Cc1ccc(-c2ccc(-c3nn[nH]c3C(=O)O)cc2)cc1` [Example 53] belongs 377 nM.
`NS(=O)(=O)c1ccc(-c2ccc(-c3nn[nH]c3C(=O)O)cc2)cc1` [Example 77] came in with an IC50 against Glycolate oxidase (GO) of 94.6 nM.
At Glycolate oxidase (GO), `O=C(O)c1n[nH]cc1-c1cccnc1` [Example 35, 4-(pyridin-3-yl)-1H-pyrazole-3-carboxylic acid] displayed an IC50 of at least 10000 nM.
Still for that read-out and setting: the figure for `O=C(O)c1[nH]nnc1-c1ccc(-c2ccc(-c3ncco3)cc2)cc1` [Example 112] is 37.5 nM.
Regarding `O=C(O)c1[nH]nnc1-c1ccc(-c2ccc(Cl)c(S(=O)(=O)N3CCOCC3)c2)cc1` [Example 146], half-maximal inhibition at Glycolate oxidase (GO) (IC50) was put at 33.6 nM.
The same measure, in the same setting: the figure for `O=C(O)c1[nH]nnc1-c1ccc(-c2ccc(N3CCCC3=O)cc2)cc1` [Example 83] is 136 nM; for `Cc1ccc(-c2nn[nH]c2C(=O)O)cc1` [Example 5, 4-(p-tolyl)-1H-1,2,3-triazole-5-carboxylic acid] it is at least 10000 nM.
